Results published in ChEMBL document CHEMBL1201862, “PubChem BioAssay data set” (2004).
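Protocol summary: plate cells (96-well), add compound at 5 concentrations, incubate 48 h, interpolate endpoints linearly. GI50 is the concentration that inhibits growth by half.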 Calls of active or inactive are those of the source. Cut-off read from the data, not from the text of the source: active = GI50 up to about 1.1 µM and inactive = higher. Non-standard residues stand in square brackets, D forms with d. Residues, ends and D or L forms follow the SMILES beside them. β3hI = CC[CH](C)[CH](N)CC(=O)O

Key:
Assay in all cases: NCI-60 cell line screen, 48 h
OVCAR-3 = tested on: OVCAR-3
RXF 393 = tested on: RXF 393
HCT-116 = tested on: HCT-116
SN12C = tested on: SN12C
U-251 = tested on: U-251
TK-10 = tested on: TK-10
SK-MEL-28 = tested on: SK-MEL-28
NCI-H522 = tested on: NCI-H522
SK-MEL-2 = tested on: SK-MEL-2
A498 = tested on: A498
BT-549 = tested on: BT-549
HOP-62 = tested on: HOP-62
OVCAR-8 = tested on: OVCAR-8
SR = tested on: SR
SNB-19 = tested on: SNB-19
HCT-15 = tested on: HCT-15
HCC 2998 = tested on: HCC 2998
CAKI-1 = tested on: CAKI-1
NCI-H460 = tested on: NCI-H460

Row | Compound | GI50 (OVCAR-3) | GI50 (RXF 393) | GI50 (HCT-116) | GI50 (SN12C) | GI50 (U-251) | GI50 (TK-10) | GI50 (SK-MEL-28) | GI50 (NCI-H522) | GI50 (SK-MEL-2) | GI50 (A498) | GI50 (BT-549) | GI50 (HOP-62) | GI50 (OVCAR-8) | GI50 (SR) | GI50 (SNB-19) | GI50 (HCT-15) [µM] | GI50 (HCC 2998) | GI50 (CAKI-1) | GI50 (NCI-H460)
1 | COc1ccc(/C=C2\CCC(CNc3ccc(S(N)(=O)=O)cc3)C2=O)cc1 (stereo not drawn) | 9.04 µM (inactive) | 20.4 µM (inactive) | 8.65 µM (inactive) | 18.6 µM (inactive) | 19.9 µM (inactive) | 14.3 µM (inactive) | 16.7 µM (inactive) | 4.52 µM (inactive) | 75.7 µM (inactive) | 44.4 µM (inactive) | 18.7 µM (inactive) | 37.8 µM (inactive) | 18 µM (inactive) | 1.9 µM (inactive) | 32 µM (inactive) | 4.71 | 33.3 µM (inactive) | 3.27 µM (inactive) | 31.3 µM (inactive)
2 | COc1ccc(CCN2CCN(CCCc3ccccc3)CC2)cc1 | 80 µM (inactive) |  | > 100 µM (inactive) | > 100 µM (inactive) | > 100 µM (inactive) | 64.4 µM (inactive) | > 100 µM (inactive) | > 100 µM (inactive) | > 100 µM (inactive) | > 100 µM (inactive) | 70.5 µM (inactive) | > 100 µM (inactive) | > 100 µM (inactive) | 47.8 µM (inactive) | > 100 µM (inactive) | 37.7 | 69.3 µM (inactive) | > 100 µM (inactive) | 84.5 µM (inactive)
3 | COc1cc(C2SCC(=O)N2c2ccccn2)cc(OC)c1OC (stereo not drawn) | > 100 µM (inactive) |  | 79.6 µM (inactive) | > 100 µM (inactive) | > 100 µM (inactive) | > 100 µM (inactive) | > 100 µM (inactive) | 57.7 µM (inactive) | > 100 µM (inactive) | > 100 µM (inactive) | 98.6 µM (inactive) |  | > 100 µM (inactive) | 31.6 µM (inactive) | > 100 µM (inactive) | 55.5 | > 100 µM (inactive) | > 100 µM (inactive) | > 100 µM (inactive)
4 | Cc1ccc(O)c(-c2cc(-c3cccc(Br)c3)on2)c1 | 19.1 µM (inactive) | 17.3 µM (inactive) | 20 µM (inactive) | 23.8 µM (inactive) | 17 µM (inactive) | 21.9 µM (inactive) | 23.8 µM (inactive) |  | 21.5 µM (inactive) | 68.9 µM (inactive) | 27.7 µM (inactive) | 47.8 µM (inactive) | 25.8 µM (inactive) | 25.1 µM (inactive) | 39.3 µM (inactive) | 31.4 | 22.4 µM (inactive) | 23.4 µM (inactive) | 29.1 µM (inactive)
5 | Oc1cc(CF)nc(S)n1 | > 100 µM (inactive) | > 100 µM (inactive) | > 100 µM (inactive) | > 100 µM (inactive) | > 100 µM (inactive) | > 100 µM (inactive) | > 100 µM (inactive) | > 100 µM (inactive) |  | > 100 µM (inactive) | > 100 µM (inactive) | > 100 µM (inactive) | > 100 µM (inactive) | > 100 µM (inactive) | > 100 µM (inactive) | > 100 | > 100 µM (inactive) | > 100 µM (inactive) | > 100 µM (inactive)
6 | Clc1ccc(Cl)c(Nc2ccnc(SCc3ccccc3)n2)c1 | > 100 µM (inactive) | 20.4 µM (inactive) | > 100 µM (inactive) | > 100 µM (inactive) | > 100 µM (inactive) | > 100 µM (inactive) | > 100 µM (inactive) | 84.9 µM (inactive) | > 100 µM (inactive) | > 100 µM (inactive) | > 100 µM (inactive) | > 100 µM (inactive) | > 100 µM (inactive) | > 100 µM (inactive) | > 100 µM (inactive) | > 100 |  | > 100 µM (inactive) | 54.8 µM (inactive)
7 | CCC(C)C(CC(=O)N1CCCC1C(=O)NC(C(=O)NC(C(=O)NCC(=O)NC(CC(N)=O)C(=O)NC(C(=O)NC(C(=O)NC(CCCCN)C(N)=O)C(C)CC)C(C)CC)C(C)C)C(C)CC)NC(=O)C(N)C(C)CC (stereo not drawn) (H-I[β3hI]PIVGNIIK-NH2; configuration not given here) | > 50 µM (inactive) |  | > 50 µM (inactive) | > 50 µM (inactive) | > 50 µM (inactive) | > 50 µM (inactive) | > 50 µM (inactive) | > 50 µM (inactive) | > 50 µM (inactive) | > 50 µM (inactive) | > 50 µM (inactive) | > 50 µM (inactive) | > 50 µM (inactive) | > 50 µM (inactive) | > 50 µM (inactive) | > 50 |  | > 50 µM (inactive) | 
8 | COc1ccc(NC(=S)N/N=C/c2c(C)n(C)n(-c3ccccc3)c2=O)cc1 |  | 23 µM (inactive) | 77.6 µM (inactive) |  | 20.4 µM (inactive) | 53.3 µM (inactive) | 64.1 µM (inactive) |  | 32.1 µM (inactive) | 17.2 µM (inactive) | 43.7 µM (inactive) | 19.4 µM (inactive) | 20.7 µM (inactive) | 78.5 µM (inactive) | 20.5 µM (inactive) | > 100 | > 100 µM (inactive) | 22 µM (inactive) | 
9 | CCCSc1ccc2[nH]c(/N=C/c3ccco3)cc2c1 | 29.8 µM (inactive) | 22.3 µM (inactive) | 35.4 µM (inactive) | 29.9 µM (inactive) |  |  | 41.8 µM (inactive) | 22.2 µM (inactive) | 23.7 µM (inactive) | 34.4 µM (inactive) | 31 µM (inactive) | 6.64 µM (inactive) | 31.5 µM (inactive) | 1.68 µM (inactive) | > 100 µM (inactive) | 24.3 |  | 34 µM (inactive) | 
10 | COc1ccc(OC)c2sc(N3C(=O)/C(=C/c4ccccc4S)N=C3c3ccccc3)nc12 | 37.5 µM (inactive) | 18.8 µM (inactive) | 28.2 µM (inactive) | 26.9 µM (inactive) | 23.8 µM (inactive) | > 100 µM (inactive) | > 100 µM (inactive) |  | 25.8 µM (inactive) | 55.5 µM (inactive) | 45.9 µM (inactive) | 82.6 µM (inactive) | 47.2 µM (inactive) | 14.4 µM (inactive) | 69.2 µM (inactive) | 34.1 | > 100 µM (inactive) | 95.9 µM (inactive) | 53.8 µM (inactive)
11 | O=[N+]([O-])c1ccc(/N=N/c2c(O)ccc3cc(S(=O)(=O)O)cc(S(=O)(=O)O)c23)cc1 | > 100 µM (inactive) | > 100 µM (inactive) | > 100 µM (inactive) | > 100 µM (inactive) | > 100 µM (inactive) | > 100 µM (inactive) | > 100 µM (inactive) | > 100 µM (inactive) | > 100 µM (inactive) | > 100 µM (inactive) | > 100 µM (inactive) | > 100 µM (inactive) | > 100 µM (inactive) | > 100 µM (inactive) | > 100 µM (inactive) | > 100 |  | > 100 µM (inactive) | 
12 | COc1ccc(-c2nc(N)c3ncn(C4OC(CO)C(O)C4O)c3n2)cc1 (stereo not drawn) | > 100 µM (inactive) | > 100 µM (inactive) | > 100 µM (inactive) | > 100 µM (inactive) | > 100 µM (inactive) | > 100 µM (inactive) | > 100 µM (inactive) | 62.8 µM (inactive) | > 100 µM (inactive) | > 100 µM (inactive) | > 100 µM (inactive) | > 100 µM (inactive) | > 100 µM (inactive) | > 100 µM (inactive) | > 100 µM (inactive) | > 100 |  | > 100 µM (inactive) | > 100 µM (inactive)
13 | COc1cccc(N2C(=O)C3c4[nH]c5ccc(C)cc5c4C4CCC(C)CC4C3C2=O)c1 (stereo not drawn) | > 100 µM (inactive) | 18.3 µM (inactive) | > 100 µM (inactive) | > 100 µM (inactive) | 51.3 µM (inactive) | 36.1 µM (inactive) | > 100 µM (inactive) |  | 24.5 µM (inactive) | 49 µM (inactive) | 76 µM (inactive) | 1.4 µM (inactive) | > 100 µM (inactive) | > 10 µM (inactive) | 73.3 µM (inactive) | > 100 | > 100 µM (inactive) | 39.5 µM (inactive) | > 100 µM (inactive)
14 | OC(C1CCCCCCCCCC1)C(O)C1CCCCCCCCCC1 (stereo not drawn) | > 100 µM (inactive) | 93.1 µM (inactive) | > 100 µM (inactive) | > 100 µM (inactive) | > 100 µM (inactive) | > 100 µM (inactive) | > 100 µM (inactive) | 61 µM (inactive) | > 100 µM (inactive) |  | > 100 µM (inactive) | > 100 µM (inactive) | > 100 µM (inactive) | > 100 µM (inactive) | > 100 µM (inactive) | > 100 | > 100 µM (inactive) | > 100 µM (inactive) | > 100 µM (inactive)
15 | O=C(O)c1cc(-c2ccc(-c3ccccc3)cc2)nc2cc3ccccc3cc12 | 47.9 µM (inactive) | 27.7 µM (inactive) | 31.3 µM (inactive) | 61.9 µM (inactive) | 20.7 µM (inactive) | 58.2 µM (inactive) | 87.5 µM (inactive) | 27.7 µM (inactive) | 82 µM (inactive) | > 100 µM (inactive) | 35.9 µM (inactive) | 30.3 µM (inactive) | 57.1 µM (inactive) | 5.43 µM (inactive) | 35.6 µM (inactive) | 8.15 |  | 42 µM (inactive) | 6.35 µM (inactive)
16 | CC(NC(=O)C(Cc1ccc(OC(=O)c2ccccc2)cc1)NC(=O)OC(C)(C)C)C(=O)NCC(=O)NC(Cc1ccccc1)C(=O)NN (stereo not drawn) | 57.9 µM (inactive) | 34.8 µM (inactive) | 43.1 µM (inactive) | > 10 µM (inactive) | 51.5 µM (inactive) | 70.3 µM (inactive) | 35.7 µM (inactive) | 29.6 µM (inactive) |  | 15 µM (inactive) | 55.5 µM (inactive) | 83 µM (inactive) | 65 µM (inactive) | 13.6 µM (inactive) | 45.6 µM (inactive) | > 100 |  | 89.1 µM (inactive) | 49.2 µM (inactive)
